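How tested: cells in 96-well plates exposed to compound for 48 hours at five concentrations. GI50 is the concentration that inhibits growth by half. TGI is the concentration that stops growth completely.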
Columns and labels:
Experiment in all cases: growth of human tumour cells (NCI), 48 h
SK-MEL-2 melanoma = tested on: SK-MEL-2 melanoma
SF-268 CNS = tested on: SF-268 CNS
UACC-257 melanoma = tested on: UACC-257 melanoma
KM12 colon = tested on: KM12 colon
OVCAR-3 ovarian = tested on: OVCAR-3 ovarian
U251 CNS = tested on: U251 CNS
TK-10 renal = tested on: TK-10 renal
T-47D breast = tested on: T-47D breast
786-0 renal = tested on: 786-0 renal
HL-60(TB) leukemia = tested on: HL-60(TB) leukemia
MALME-3M melanoma = tested on: MALME-3M melanoma
HS 578T breast = tested on: HS 578T breast
CCRF-CEM leukemia = tested on: CCRF-CEM leukemia
MDA-MB-231 breast = tested on: MDA-MB-231 breast
LOX IMVI melanoma = tested on: LOX IMVI melanoma
MOLT-4 leukemia = tested on: MOLT-4 leukemia
NCI-H226 lung = tested on: NCI-H226 lung
MDA-MB-435 = tested on: MDA-MB-435
OVCAR-5 ovarian = tested on: OVCAR-5 ovarian
CAKI-1 renal = tested on: CAKI-1 renal
OVCAR-4 ovarian = tested on: OVCAR-4 ovarian
OVCAR-8 ovarian = tested on: OVCAR-8 ovarian
COLO 205 colon = tested on: COLO 205 colon
NCI-H460 lung = tested on: NCI-H460 lung
NCI/ADR-RES ovarian = tested on: NCI/ADR-RES ovarian
HT29 colon = tested on: HT29 colon
M14 melanoma = tested on: M14 melanoma
RXF 393 renal = tested on: RXF 393 renal
SK-MEL-5 melanoma = tested on: SK-MEL-5 melanoma
PC-3 prostate = tested on: PC-3 prostate
IGROV1 ovarian = tested on: IGROV1 ovarian
HOP-92 NSCLC = tested on: HOP-92 NSCLC
RPMI-8226 leukemia = tested on: RPMI-8226 leukemia
DU-145 prostate = tested on: DU-145 prostate
SK-MEL-28 melanoma = tested on: SK-MEL-28 melanoma
HCC-2998 colon = tested on: HCC-2998 colon
K-562 leukemia = tested on: K-562 leukemia
HOP-62 NSCLC = tested on: HOP-62 NSCLC
SW-620 colon = tested on: SW-620 colon
MCF7 breast = tested on: MCF7 breast
HCT-15 colon = tested on: HCT-15 colon
SR leukemia = tested on: SR leukemia
BT-549 breast = tested on: BT-549 breast
SK-OV-3 ovarian = tested on: SK-OV-3 ovarian
HCT-116 colon = tested on: HCT-116 colon
A498 renal = tested on: A498 renal
UO-31 renal = tested on: UO-31 renal
SN12C renal = tested on: SN12C renal
UACC-62 melanoma = tested on: UACC-62 melanoma
SF-295 CNS = tested on: SF-295 CNS
SNB-19 CNS = tested on: SNB-19 CNS
A549 NSCLC = tested on: A549 NSCLC
SF-539 CNS = tested on: SF-539 CNS
ACHN renal = tested on: ACHN renal
SNB-75 CNS = tested on: SNB-75 CNS

Q: Which results are given for `Cc1ccc(NC2=C(Cl)C(=O)c3nc(C)ccc3C2=O)c(C)c1`?
A: GI50 (SK-MEL-2 melanoma): 1930 nM; TGI (SK-MEL-2 melanoma): 3880 nM; GI50 (SF-268 CNS): 1860 nM; TGI (SF-268 CNS): 4160 nM; GI50 (UACC-257 melanoma): 1500 nM; TGI (UACC-257 melanoma): 2920 nM; GI50 (KM12 colon): 1740 nM; TGI (KM12 colon): 3290 nM; GI50 (OVCAR-3 ovarian): 1420 nM; TGI (OVCAR-3 ovarian): 2840 nM; GI50 (U251 CNS): 1760 nM; TGI (U251 CNS): 3370 nM; GI50 (TK-10 renal): 2150 nM; TGI (TK-10 renal): 3680 nM; GI50 (T-47D breast): 1660 nM; TGI (T-47D breast): 4140 nM; GI50 (786-0 renal): 2000 nM; TGI (786-0 renal): 4400 nM; GI50 (HL-60(TB) leukemia): 1740 nM; TGI (HL-60(TB) leukemia): 4480 nM; GI50 (MALME-3M melanoma): 1960 nM; TGI (MALME-3M melanoma): 3900 nM; GI50 (HS 578T breast): 2280 nM; TGI (HS 578T breast): 5950 nM; GI50 (CCRF-CEM leukemia): 2020 nM; TGI (CCRF-CEM leukemia): 6000 nM; GI50 (MDA-MB-231 breast): 1890 nM; TGI (MDA-MB-231 breast): 4440 nM; GI50 (LOX IMVI melanoma): 1140 nM; TGI (LOX IMVI melanoma): 3880 nM; GI50 (MOLT-4 leukemia): 1600 nM; TGI (MOLT-4 leukemia): 4830 nM; GI50 (NCI-H226 lung): 1810 nM; TGI (NCI-H226 lung): 4630 nM; GI50 (MDA-MB-435): 1960 nM; TGI (MDA-MB-435): 3810 nM; GI50 (OVCAR-5 ovarian): 2260 nM; TGI (OVCAR-5 ovarian): 4330 nM; GI50 (CAKI-1 renal): 1730 nM; TGI (CAKI-1 renal): 3340 nM; GI50 (OVCAR-4 ovarian): 1530 nM; TGI (OVCAR-4 ovarian): 3020 nM; GI50 (OVCAR-8 ovarian): 2410 nM; TGI (OVCAR-8 ovarian): 7110 nM; GI50 (COLO 205 colon): 2060 nM; TGI (COLO 205 colon): 4280 nM; GI50 (NCI-H460 lung): 1990 nM; TGI (NCI-H460 lung): 4170 nM; GI50 (NCI/ADR-RES ovarian): 2170 nM; TGI (NCI/ADR-RES ovarian): 6520 nM; GI50 (HT29 colon): 2610 nM; TGI (HT29 colon): 7340 nM; GI50 (M14 melanoma): 1620 nM; TGI (M14 melanoma): 3080 nM; GI50 (RXF 393 renal): 1410 nM; TGI (RXF 393 renal): 2760 nM; GI50 (SK-MEL-5 melanoma): 1670 nM; TGI (SK-MEL-5 melanoma): 3080 nM; GI50 (PC-3 prostate): 1560 nM; TGI (PC-3 prostate): 3660 nM; GI50 (IGROV1 ovarian): 1850 nM; TGI (IGROV1 ovarian): 3880 nM; GI50 (HOP-92 NSCLC): 2080 nM; TGI (HOP-92 NSCLC): 4350 nM; GI50 (RPMI-8226 leukemia): 1540 nM; TGI (RPMI-8226 leukemia): 4340 nM; GI50 (DU-145 prostate): 1710 nM; TGI (DU-145 prostate): 3220 nM; GI50 (SK-MEL-28 melanoma): 1950 nM; TGI (SK-MEL-28 melanoma): 3840 nM; GI50 (HCC-2998 colon): 1750 nM; TGI (HCC-2998 colon): 3310 nM; GI50 (K-562 leukemia): 1620 nM; TGI (K-562 leukemia): 5540 nM; GI50 (HOP-62 NSCLC): 1710 nM; TGI (HOP-62 NSCLC): 3160 nM; GI50 (SW-620 colon): 2150 nM; TGI (SW-620 colon): 4650 nM; GI50 (MCF7 breast): 1400 nM; TGI (MCF7 breast): 3580 nM; GI50 (HCT-15 colon): 1300 nM; TGI (HCT-15 colon): 3190 nM; GI50 (SR leukemia): 1280 nM; TGI (SR leukemia): 4190 nM; GI50 (BT-549 breast): 1440 nM; TGI (BT-549 breast): 2820 nM; GI50 (SK-OV-3 ovarian): 2750 nM; TGI (SK-OV-3 ovarian): 10600 nM; GI50 (HCT-116 colon): 1520 nM; TGI (HCT-116 colon): 3250 nM; GI50 (A498 renal): 1610 nM; TGI (A498 renal): 6590 nM; GI50 (UO-31 renal): 1560 nM; TGI (UO-31 renal): 3150 nM; GI50 (SN12C renal): 1950 nM; TGI (SN12C renal): 5030 nM; GI50 (UACC-62 melanoma): 2000 nM; TGI (UACC-62 melanoma): 4010 nM; GI50 (SF-295 CNS): 1820 nM; TGI (SF-295 CNS): 3430 nM; GI50 (SNB-19 CNS): 1940 nM; TGI (SNB-19 CNS): 4340 nM; GI50 (A549 NSCLC): 2220 nM; TGI (A549 NSCLC): 5200 nM; GI50 (SF-539 CNS): 1700 nM; TGI (SF-539 CNS): 3210 nM; GI50 (ACHN renal): 1910 nM; TGI (ACHN renal): 3720 nM; GI50 (SNB-75 CNS): 1490 nM; TGI (SNB-75 CNS): 3080 nM

From PubChem BioAssay (NCI)
